Tests used:
[1] = tested on: clinically isolated Acinetobacter baumannii; conditions: found in 2017; cited from earlier work
[2] = tested on: CR-Ab pneumonia model mice; assay: Protective effect in CR-Ab pneumonia model mice (7-day survival); format: in vivo, Male C57BL/6 mice; conditions: intraperitoneal, once a day, after 7 days
[3] = tested on: carbapenem antibiotic-resistant Acinetobacter baumannii CR-Ab (157 clinically isolated strains); assay: microbe, parasite or virus in culture; conditions: read-out: Cumulative microbial inhibition rates (%) against CR-Ab
Excerpt: Strains: 157 clinically isolated strains of carbapenem antibiotic-resistant Acinetobacter baumannii were selected and named as CR-Ab.
Drugs: Sulbactam and ceftazidime were taken and prepared into compositions of different ratios. The method was fixing the amount of sulbactam and gradually reducing the amount of ceftazidime to obtain compositions of sulbactam and ceftazidime at weight ratios of 1:1, 1:0.9, 1:0.8, 1:0.6, 1:0.4, 1:0.2 and 1:0.1, respectively. A sulbactam-only preparation was additionally used as a control.
The cumulative microbial inhibition rate was used to evaluate the microbial inhibition effects of the drugs, respectively. The cumulative microbial inhibition rate was defined as the microbial inhibition rate of a drug at a certain concentration plus all the microbial inhibition rates below that concentration.

Compound: CC(C)(O/N=C(\C(=O)N[C@@H]1C(=O)N2C(C(=O)[O-])=C(C[n+]3ccccc3)CS[C@H]12)c1csc(N)n1)C(=O)O [ceftazidime, (6R,7R)-7-[[(2Z)-2-(2-Aminothiazol-4-yl)-2-[(1-carboxy-1-methylethoxy)imino]acetyl]amino]-8-oxo-3-[(1-pyridinio)methyl]-5-thia-1-azabicyclo[4.2.0]oct-2-ene-2-carboxylate]
- resistance rate [1]: up to 72%

Compound: C[C@@H](O)[C@H]1C(=O)N2C(C(=O)O)=C(S[C@@H]3CN[C@H](C(=O)N(C)C)C3)[C@H](C)[C@H]12 [Meropenem, meropenem]
- Survival of CR-Ab pneumonia model mice ([2]; High dose (30 mg/kg)): 3/15
- Survival of CR-Ab pneumonia model mice ([2]; Low dose (10 mg/kg)): 2/15
- resistance rate [1]: up to 69.3%

Compound: CC1(C)[C@H](C(=O)O)N2C(=O)C[C@H]2S1(=O)=O [Single sulbactam, (2S,5R)-3,3-dimethyl-7-oxo-4-thia-1-azabicyclo[3.2.0]heptane-2-carboxylate-4,4-dioxide]
- inhibition at 0.125 µg/mL [3]: 0%
- inhibition at 0.25 µg/mL [3]: 0%
- inhibition at 0.5 µg/mL [3]: 0%
- inhibition at 1 µg/mL [3]: 7%
- inhibition at 2 µg/mL [3]: 17%
- inhibition at 4 µg/mL [3]: 32%
- inhibition at 8 µg/mL [3]: 48%
- inhibition at 16 µg/mL [3]: 64%
- inhibition at 32 µg/mL [3]: 84%
- inhibition at 64 µg/mL [3]: 94%
- inhibition at 128 µg/mL [3]: 100%
- inhibition at 256 µg/mL [3]: 100%
- inhibition at 512 µg/mL [3]: 100%
